Drawing on patent publication US20250002487A1, “HETEROCYCLIC COMPOUNDS AND USES THEREOF” (Ventus Therapeutics U.S., Inc., priority 2021, published 2025), this text covers IC50 for 29 molecules.

pIC50: −log10 of the molar value.

In this assay the target is human-cGAS (h-cGAS) (Homo sapiens, UniProt Q8N884). Nature of the assay: hcGAS Kinase-Glo Assay. Type of assay: biochemical. Particulars: 40 nM h-cGAS, 100 μM ATP, 100 μM GTP, 25 nM dsDNA, 3 h incubation, read-out: hcGAS potency IC50. A digest of the protocol: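 Kinase-Glo luminescent read-out of human cGAS activity, following the published Lama et al. (2019) protocol with slightly altered conditions. Inhibition reported as IC50.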
Sequence of human-cGAS (h-cGAS) (Q8N884 whole entry): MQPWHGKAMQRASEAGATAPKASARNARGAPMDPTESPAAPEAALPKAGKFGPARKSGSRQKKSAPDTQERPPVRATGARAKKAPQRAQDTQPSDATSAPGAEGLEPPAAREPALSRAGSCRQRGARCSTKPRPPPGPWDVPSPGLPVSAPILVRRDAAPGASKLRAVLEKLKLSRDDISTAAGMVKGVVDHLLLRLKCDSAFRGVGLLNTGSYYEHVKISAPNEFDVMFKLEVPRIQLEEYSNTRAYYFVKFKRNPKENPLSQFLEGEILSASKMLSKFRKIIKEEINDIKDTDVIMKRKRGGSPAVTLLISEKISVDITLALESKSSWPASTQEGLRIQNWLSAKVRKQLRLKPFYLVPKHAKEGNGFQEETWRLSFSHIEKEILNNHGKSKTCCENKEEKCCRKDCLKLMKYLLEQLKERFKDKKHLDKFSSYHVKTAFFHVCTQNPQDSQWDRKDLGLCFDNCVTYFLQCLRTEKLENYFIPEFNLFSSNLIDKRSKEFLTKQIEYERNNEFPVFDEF
On the technique in general: In Kinase-Glo more light means more ATP remaining.
One may read the pIC50 as the IC50 on a negative log10 scale, so that one unit is a factor of ten. For `CNc1nnc(NC(=O)c2onc3c2ccc2cccnc23)s1` [Compound 280, N-(5-(methylamino)-1,3,4-thiadiazol-2-yl)isoxazolo[4,3-h]quinoline-3-carboxamide], the pIC50 was at most 6.00.
Under `CSc1nnc(NC(=O)c2cc(-c3cccc(OC(F)(F)F)c3)no2)s1` [Compound 83, N-(5-(methylthio)-1,3,4-thiadiazol-2-yl)-3-(3-(trifluoromethoxy)phenyl)isoxazole-5-carboxamide] stands at most 6.00; under `CSc1nnc(NC(=O)c2onc3ccc(C)cc23)s1` [Compound 227, 5-methyl-N-[5-(methylsulfanyl)-1,3,4-thiadiazol-2-yl]-2,1-benzoxazole-3-carboxamide], 6.00 to 6.30.
For `O=C(Nc1nnc(-c2ncccn2)s1)c1onc2ccccc12` [Compound 148, N-(5-(pyrimidin-2-yl)-1,3,4-thiadiazol-2-yl)benzo[c]isoxazole-3-carboxamide], the pIC50 was at most 6.00.
As for `O=C(Nc1nnc(-c2cccc(F)c2)s1)c1onc2ccccc12` [Compound 25, N-(5-(3-fluorophenyl)-1,3,4-thiadiazol-2-yl)benzo[c]isoxazole-3-carboxamide], the pIC50 was at most 6.00.
Under `CSc1nnc(NC(=O)c2cc(C(=O)O)no2)s1` [Compound 16, 5-((5-(methylthio)-1,3,4-thiadiazol-2-yl)carbamoyl)isoxazole-3-carboxylic acid] stands 6.30 to 7.00.
Under `O=C(O)c1cc(C(=O)Nc2nnc(-c3ccccc3Cl)s2)on1` [Compound 2, 5-((5-(2-chlorophenyl)-1,3,4-thiadiazol-2-yl)carbamoyl)isoxazole-3-carboxylic acid] stands over 7.00; under `CSc1nnc(NC(=O)c2cc(-c3ncc4ccccc4n3)no2)s1` [Compound 153, N-(5-(Methylthio)-1,3,4-thiadiazol-2-yl)-3-(quinazolin-2-yl)isoxazole-5-carboxamide], 6.30 to 7.00.
As to `Cc1nn(C)cc1-c1cc(C(=O)Nc2nnc(-c3ccccc3Cl)s2)on1` [Compound 54, N-(5-(2-chlorophenyl)-1,3,4-thiadiazol-2-yl)-3-(1,3-dimethyl-1H-pyrazol-4-yl)isoxazole-5-carboxamide], the pIC50 was 6.30 to 7.00.
On to `COC(=O)c1ccc2c(C(=O)Nc3nnc(SC)s3)onc2c1` [Compound 278, methyl 3-((5-(methylthio)-1,3,4-thiadiazol-2-yl)carbamoyl)benzo[c]isoxazole-6-carboxylate], for which the pIC50 is 6.00 to 6.30.
In the case of `CSc1nnc(NC(=O)c2cc(-c3cccs3)no2)s1` [Compound 75, N-(5-(methylthio)-1,3,4-thiadiazol-2-yl)-3-(thiophen-2-yl)isoxazole-5-carboxamide], the pIC50 was 6.00 to 6.30.
Under `CSc1nnc(NC(=O)c2nc(Nc3ccccc3)no2)s1` [Compound 265, N-(5-(methylthio)-1,3,4-thiadiazol-2-yl)-3-(phenylamino)-1,2,4-oxadiazole-5-carboxamide] stands 6.00 to 6.30.
For the molecule `Cc1ccccc1-c1nnc(NC(=O)c2onc3ccccc23)s1` [Compound 27, N-(5-(o-tolyl)-1,3,4-thiadiazol-2-yl)benzo[c]isoxazole-3-carboxamide], the pIC50 was 6.00 to 6.30.
For `CSc1nnc(NC(=O)c2noc(N3CCC(C)(C)CC3)n2)s1` [Compound 102, 5-(4,4-dimethylpiperidin-1-yl)-N-(5-(methylthio)-1,3,4-thiadiazol-2-yl)-1,2,4-oxadiazole-3-carboxamide], the pIC50 was at most 6.00.
Under `CSc1nnc(NC(=O)c2noc(-c3ccccc3)n2)s1` [Compound 236, N-(5-methylsulfanyl-1,3,4-thiadiazol-2-yl)-5-phenyl-1,2,4-oxadiazole-3-carboxamide] stands 6.00 to 6.30; under `CSc1nnc(NC(=O)c2cc(-c3cc(F)ccc3F)no2)s1` [Compound 47, 3-(2,5-difluorophenyl)-N-(5-(methylthio)-1,3,4-thiadiazol-2-yl)isoxazole-5-carboxamide], 6.00 to 6.30.
Regarding `CSc1nnc(NC(=O)c2cc(-c3ccccc3)ncn2)s1` [Compound 201, N-(5-(methylthio)-1,3,4-thiadiazol-2-yl)-6-phenylpyrimidine-4-carboxamide], the pIC50 is at most 6.00.
`CSc1nnc(NC(=O)c2onc3c2CN(C(=O)OC(C)(C)C)CC3)s1` [Compound 43, tert-butyl 3-((5-(methylthio)-1,3,4-thiadiazol-2-yl)carbamoyl)-6,7-dihydroisoxazolo[4,3-c]pyridine-5(4H)-carboxylate]: the pIC50 is at most 6.00.
Under `CSc1nnc(NC(=O)c2onc3cc(C(=O)O)ccc23)s1` [Compound 204] stands 6.30 to 7.00; under `CSc1nnc(NC(=O)c2onc3ccc(Nc4ccccc4)cc23)s1` [Compound 162, N-(5-(methylthio)-1,3,4-thiadiazol-2-yl)-5-(phenylamino)benzo[c]isoxazole-3-carboxamide], 6.00 to 6.30.
Under `CSc1nnc(NC(=O)c2cc(-c3ccc(=O)[nH]c3)cc(=O)o2)s1` [Compound 272, N-(5-(methylthio)-1,3,4-thiadiazol-2-yl)-2-oxo-4-(6-oxo-1,6-dihydropyridin-3-yl)-2H-pyran-6-carboxamide] stands 6.00 to 6.30; under `CSc1nnc(NC(=O)c2cc(-c3cnc4ccccc4c3)cc(=O)o2)s1` [Compound 255, N-(5-methylsulfanyl-1,3,4-thiadiazol-2-yl)-6-oxo-4-(3-quinolyl)pyran-2-carboxamide], 6.00 to 6.30.
In the case of `CSc1nnc(NC(=O)c2nnc(N3CCCCC3c3ccccc3)o2)s1` (centres unmarked) [Compound 149, N-(5-(methylthio)-1,3,4-thiadiazol-2-yl)-5-(2-phenylpiperidin-1-yl)-1,3,4-oxadiazole-2-carboxamide], the pIC50 was 6.00 to 6.30.
Turning to `CSc1nnc(NC(=O)c2onc3c(Cl)cccc23)s1` [Compound 228, 7-chloro-N-[5-(methylsulfanyl)-1,3,4-thiadiazol-2-yl]-2,1-benzoxazole-3-carboxamide], the negative logarithm of the IC50 (pIC50) is 6.00 to 6.30.
As for `COc1ccc(Cc2ccc3noc(C(=O)Nc4nnc(SC)s4)c3c2)cc1` [Compound 160, 5-(4-Methoxybenzyl)-N-(5-(methylthio)-1,3,4-thiadiazol-2-yl)benzo[c]isoxazole-3-carboxamide], the pIC50 was 6.00 to 6.30.
For the molecule `CSc1nnc(NC(=O)c2oncc2-c2ccccc2)s1` [Compound 232, N-[5-(methylsulfanyl)-1,3,4-thiadiazol-2-yl]-4-phenyl-1,2-oxazole-5-carboxamide], the negative logarithm of the IC50 (pIC50) is 6.00 to 6.30.
Under `CSc1nnc(NC(=O)c2nnn(-c3ccccn3)n2)s1` [Compound 136, N-(5-(methylthio)-1,3,4-thiadiazol-2-yl)-2-(pyridin-2-yl)-2H-tetrazole-5-carboxamide] stands 6.00 to 6.30.
Under `CSc1nnc(NC(=O)c2cc(-c3cccc4c(C)ccnc34)cc(=O)o2)s1` [Compound 267, 4-(4-methylquinolin-8-yl)-N-(5-(methylthio)-1,3,4-thiadiazol-2-yl)-2-oxo-2H-pyran-6-carboxamide] stands 6.30 to 7.00.
Under `O=C(Nc1nnc(-c2ccccc2Cl)s1)c1cc(Nc2ccccc2)cc(=O)o1` [Compound 206, N-[5-(2-chlorophenyl)-1,3,4-thiadiazol-2-yl]-6-oxo-4-(phenylamino) pyran-2-carboxamide] stands over 7.00.
